Measured values as given in PubChem BioAssay (NCI).
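Assay format: 96-well plates, 48-hour exposure. Definition used: TGI = concentration required for complete inhibition of growth.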

Experiments:
Assay in all cases: inhibition of tumour cell growth, NCI panel, 48 h
A498 renal = test system: A498 renal
EKVX NSCLC = test system: EKVX NSCLC
SF-539 CNS = test system: SF-539 CNS
NCI-H460 lung = test system: NCI-H460 lung
CAKI-1 renal = test system: CAKI-1 renal
HT29 colon = test system: HT29 colon
LXFL 529 NSCLC = test system: LXFL 529 NSCLC
SF-268 CNS = test system: SF-268 CNS
OVCAR-4 ovarian = test system: OVCAR-4 ovarian
NCI-H522 lung = test system: NCI-H522 lung
MOLT-4 leukemia = test system: MOLT-4 leukemia
SF-295 CNS = test system: SF-295 CNS
M14 melanoma = test system: M14 melanoma
SN12C renal = test system: SN12C renal
SW-620 colon = test system: SW-620 colon
UACC-62 melanoma = test system: UACC-62 melanoma
LOX IMVI melanoma = test system: LOX IMVI melanoma
IGROV1 ovarian = test system: IGROV1 ovarian
786-0 renal = test system: 786-0 renal
MCF7 breast = test system: MCF7 breast

Row | SMILES | TGI (A498 renal) [µM] | TGI (EKVX NSCLC) [µM] | TGI (SF-539 CNS) [µM] | TGI (NCI-H460 lung) [µM] | TGI (CAKI-1 renal) [µM] | TGI (HT29 colon) [µM] | TGI (LXFL 529 NSCLC) [µM] | TGI (SF-268 CNS) [µM] | TGI (OVCAR-4 ovarian) [µM] | TGI (NCI-H522 lung) [µM] | TGI (MOLT-4 leukemia) [µM] | TGI (SF-295 CNS) [µM] | TGI (M14 melanoma) [µM] | TGI (SN12C renal) [µM] | TGI (SW-620 colon) [µM] | TGI (UACC-62 melanoma) [µM] | TGI (LOX IMVI melanoma) [µM] | TGI (IGROV1 ovarian) [µM] | TGI (786-0 renal) [µM] | TGI (MCF7 breast) [µM]
1 | CC(C)N(C(=O)C12C3C4C1C1C2C3C41C(=O)N(C(C)C)C(C)C)C(C)C (centres undefined) | > 50 | > 50 | > 50 | > 50 | > 50 | > 50 | > 50 | > 50 | > 50 | > 50 | > 50 | > 50 | > 50 | > 50 | > 50 | > 50 | > 50 | > 50 | > 50 | –
2 | O=c1ccn(/C=C/C(O)C(O)CO)c(=O)[nH]1 (centres undefined) | > 100 | > 100 | > 100 | – | > 100 | > 100 | > 100 | > 100 | > 100 | > 100 | > 100 | > 100 | – | > 100 | > 100 | > 100 | > 100 | > 100 | > 100 | –
3 | Cc1nnc(N/N=C(/C(=O)C(C#N)c2ccc(Cl)cc2)C(C#N)c2ccc(Cl)cc2)n1N (centres undefined) | – | – | – | 39.3 | 43.1 | 61.9 | 26.6 | 57.2 | 32.9 | 32.3 | > 100 | 30.9 | 38.7 | 34.9 | 37.3 | – | 35.4 | – | 31.5 | –
4 | CN(C)C(F)=PC(F)(F)F (centres undefined) | > 100 | > 100 | > 100 | > 100 | > 100 | > 100 | > 100 | > 100 | > 100 | > 100 | > 100 | > 100 | > 100 | > 100 | > 100 | > 100 | > 100 | > 100 | > 100 | –
5 | CSc1ccc2c(cc1=O)C(NC(=O)c1ccc(C#N)cc1)CCc1cc(O)c(O)c(O)c1-2 (centres undefined) | > 100 | > 100 | 36.1 | 73.3 | – | 75.3 | 44.4 | > 100 | 27.2 | 40.3 | 59 | 74.7 | 89.6 | 40.3 | 37.7 | 46.3 | – | – | > 100 | –
6 | CCOC(=O)/C=C\C(C#N)(C#N)N=Cc1ccsc1 | 33.5 | 30.6 | 12.9 | 43.7 | 5.33 | 28.1 | – | 22 | 19.2 | 2.83 | 5.61 | 46.6 | 9.5 | 36.3 | 4.11 | 32 | 15.1 | 28.2 | 5.01 | 8
7 | Cn1nc(-c2ccccc2)c(C(=O)/C=C/c2ccc(Cl)cc2)c(N2CCOCC2)c1=O | 15.8 | 27.1 | 7.67 | 12.2 | 19.7 | 15.1 | 9.89 | 11.8 | – | 9.46 | 4.63 | 4.79 | 15.7 | 29.2 | 21.5 | 10.7 | 61.7 | 16.1 | 12.3 | –
8 | Cc1ccc(S(=O)(=O)N2CC(CCN)c3ccccc32)cc1 (centres undefined) | 40.6 | 82.4 | 8.59 | > 64.8 | 23.8 | 8.14 | – | 23.8 | > 100 | 14.6 | > 83.9 | 33.5 | 8.4 | 10.7 | 18 | 11.7 | 13.5 | > 53.4 | 14.7 | 29.8
9 | Cc1ccc(NC(=O)/C(C#N)=C/c2ccccc2)c(C)c1 | > 100 | > 100 | > 100 | > 100 | > 100 | > 100 | > 100 | > 100 | > 100 | > 100 | > 100 | > 100 | > 100 | > 100 | > 100 | > 100 | – | > 100 | > 100 | –
10 | COC(=O)CCC(NC(=S)N/N=C(\C)c1cnccn1)C(=O)OC (centres undefined) | > 100 | > 100 | > 100 | > 100 | – | > 100 | > 100 | > 100 | > 100 | 84 | 61 | > 100 | > 100 | > 100 | > 100 | 90.2 | > 100 | > 100 | > 100 | –
11 | CCCCN(C)C(=O)C1=C(C)NC(C)=C(C(=O)N(C)CCCC)C1 | > 100 | > 100 | > 100 | > 100 | > 100 | > 100 | – | > 100 | > 100 | > 100 | > 100 | > 100 | > 100 | > 100 | > 100 | > 100 | > 100 | > 100 | > 100 | > 100
12 | O=c1cc(CNC2CC3CCC2C3)[nH]c(=O)[nH]1 (centres undefined) | > 100 | > 100 | > 100 | > 100 | > 100 | > 100 | – | > 100 | > 100 | > 100 | > 100 | > 100 | > 100 | > 100 | > 100 | > 100 | > 100 | > 100 | > 100 | > 100
13 | O=C(O)C12CC3CC(CC(F)(C3)C1)C2 | > 100 | > 100 | > 100 | > 100 | – | > 100 | > 100 | – | – | > 100 | > 100 | – | > 100 | – | > 100 | > 100 | > 100 | > 100 | > 100 | –
14 | CCc1ccccc1NC(=O)CC1NC(=O)CS1 (centres undefined) | > 100 | > 100 | > 100 | > 100 | > 100 | – | > 100 | > 100 | > 100 | > 100 | > 100 | > 100 | > 100 | > 100 | > 100 | > 100 | > 100 | > 100 | > 100 | –
15 | CN(C)CC(/C(Cc1ccccc1)=N\NC(=S)NN)c1ccccc1 (centres undefined) | – | – | > 100 | > 100 | > 100 | > 100 | > 100 | > 100 | > 100 | > 100 | > 100 | > 100 | > 100 | > 100 | > 100 | > 100 | > 100 | > 100 | > 100 | –
16 | O=c1[nH]c(=O)n(C2C(CO)OC(CO)C2O)cc1F (centres undefined) | > 100 | > 100 | > 100 | > 100 | > 100 | > 100 | – | > 100 | > 100 | > 100 | > 100 | > 100 | > 100 | > 100 | > 100 | > 100 | > 100 | > 100 | > 100 | > 100
17 | CC(C)CCC[C@@H](C)[C@H]1CC[C@H]2C3=C[C@H](OS(=O)(=O)O)[C@@]4(O)C[C@@H](O)CC[C@]4(C)[C@@]3(O)CC[C@]12C | > 100 | > 100 | > 100 | > 100 | > 100 | > 100 | – | > 100 | > 100 | > 100 | > 100 | > 100 | > 100 | > 100 | > 100 | > 100 | > 100 | > 100 | > 100 | > 100
18 | N#CNC1=NC(N)C(c2nc3ccccc3[nH]2)=C(CCCC(=O)Nc2cccc([N+](=O)[O-])c2)N1 (centres undefined) | – | > 100 | > 100 | > 100 | > 100 | > 100 | > 100 | > 100 | > 100 | > 100 | > 100 | > 100 | > 100 | > 100 | > 100 | > 100 | > 100 | > 100 | > 100 | –
19 | Cc1ccc(S(=O)(=O)N2CCN(S(=O)(=O)c3ccc(C)cc3)CCN(S(=O)(=O)c3ccc(C)cc3)Cc3cc(Br)c(Br)cc3CN(S(=O)(=O)c3ccc(C)cc3)CC2)cc1 | > 100 | > 100 | > 100 | > 100 | > 100 | > 100 | – | > 100 | > 100 | > 100 | > 100 | > 100 | 43.2 | > 100 | > 100 | > 100 | > 100 | > 100 | > 100 | > 100
20 | Cc1nc(N(C(C)C)C(C)C)c(C(C)C)o1 | > 100 | > 100 | > 100 | > 100 | > 100 | > 100 | – | > 100 | > 100 | > 100 | > 100 | > 100 | > 100 | > 100 | > 100 | > 100 | > 100 | > 100 | > 100 | > 100
21 | CC(=O)NCCCCN(CCCNC(C)=O)C(=O)OCc1ccccc1 | > 100 | > 100 | > 100 | > 100 | > 100 | > 100 | – | > 100 | > 100 | > 100 | > 100 | > 100 | > 100 | > 100 | > 100 | > 100 | > 100 | > 100 | > 100 | > 100
22 | O=C1C=C(C2=C(C3=CC(=O)c4ccccc4C3=O)C(=O)c3ccccc3C2=O)C(=O)c2ccccc21 | 36.8 | 33.8 | 21.7 | 39.6 | 11.7 | 12.5 | – | 33.8 | 17 | 7.17 | 2.27 | 34 | 22.5 | 16.5 | 20.5 | 31.6 | 14.6 | 8.1 | 12.6 | 29.6
23 | COc1cc(-c2cc(=O)c3ccccc3[nH]2)cc(OC)c1OC | – | > 75 | > 75 | > 75 | – | > 75 | > 75 | > 75 | – | > 75 | > 75 | > 75 | > 75 | > 75 | > 75 | > 75 | > 75 | – | > 75 | –
24 | CS(=O)(=O)C1(Br)S(=O)(=O)OCCOS1(=O)=O | > 100 | > 100 | > 100 | > 100 | – | > 100 | > 100 | > 100 | > 100 | > 100 | > 100 | > 100 | > 100 | > 100 | > 100 | > 100 | > 100 | > 100 | > 100 | –
25 | O=C(N/N=C(\C1=Nc2ccc(Cl)cc2NC1O)C(O)/C=C/c1ccccc1)c1ccncc1 (centres undefined) | – | – | > 100 | > 100 | > 100 | > 100 | > 100 | > 100 | > 100 | > 100 | > 100 | > 100 | > 100 | > 100 | > 100 | > 100 | > 100 | > 100 | > 100 | –
26 | Oc1cccnc1/C=N/OCc1ccccc1 | > 100 | > 100 | > 100 | > 100 | > 100 | > 100 | > 100 | > 100 | – | > 100 | > 100 | > 100 | > 100 | > 100 | > 100 | > 100 | > 100 | > 100 | > 100 | –
